The test system of one experiment is E. coli BL21 RF2(R262C). Nature of the experiment: Minimum inhibitory concentration against release factor mutant strain. The class given is cell-based, Escherichia coli. The settings on record: Table 5; release factor mutant resistant to Api-137.
The next experiment concerns E. coli BL21. The class given is cell-based, Escherichia coli. The settings on record: for MIC: microbroth dilution, 96-well plates, E. coli BL21 OD600 = 0.002 in 0.3 Tryptic Soy Broth, overnight at 37 °C, visible cell density, run in duplicate; for Fold change: MIC compared to that of Api-137. On the technique in general: In broth dilution the organism is exposed to a series of concentrations in liquid medium.

Where two headings read alike, the source gives them in different places. Where a SMILES comes first, the peptide text is derived from it. [ ]: non-standard residue; d: D form. The star is where a group is joined. Orn(α-tetramethylguanidino) = CN(C)C(=N[C@@H](CCCN)C(=O)*)N(C)C; Arg(Me) = CNC(=N)NCCC[C@H](N)C(=O)O; dLeu(ol) = CC(C)C[C@@H](N)CO; NHIsopentyl = CC(C)CCN*

As to `CC[C@H](C)[C@H](NC(=O)[C@H](Cc1ccc(O)cc1)NC(=O)[C@@H](NC(=O)[C@@H]1CCCN1C(=O)[C@H](CCCNC(=N)N)NC(=O)[C@H](CC(N)=O)NC(=O)[C@H](CC(N)=O)NC(=O)[C@H](CCCN)N=C(N(C)C)N(C)C)C(C)C)C(=O)N1CCC[C@H]1C(=O)N[C@@H](CCCNC(=N)N)C(=O)N1CCC[C@H]1C(=O)N[C@@H](CCCNC(=N)N)C(=O)N1CCC[C@H]1C(=O)N1CCC[C@H]1C(=O)N[C@@H](Cc1c[nH]cn1)C(=O)N1CCC[C@H]1C(=O)N[C@@H](CCCNC(=N)NC)C(=O)N[C@@H](CC(C)C)C(=O)O` [Compound 3] ({Orn(α-tetramethylguanidino)}-NNRPVYIPRPRPPHP[Arg(Me)]L-OH), the “minimum inhibitory concentration, BL21 RF2(R262C)” value with E. coli BL21 RF2(R262C) is reported as greater than 25.

One may read the MIC as the lowest concentration found to suppress growth. High values mean a less susceptible organism, low ones a more susceptible organism. As for `CC[C@H](C)[C@H](NC(=O)[C@H](Cc1ccc(O)cc1)NC(=O)[C@@H](NC(=O)[C@@H]1CCCN1C(=O)[C@H](CCCNC(=N)N)NC(=O)[C@H](CC(N)=O)NC(=O)[C@H](CC(N)=O)NC(=O)[C@H](CCCN)N=C(N(C)C)N(C)C)C(C)C)C(=O)N1CCC[C@H]1C(=O)N[C@@H](CCCNC(=N)N)C(=O)N1CCC[C@H]1C(=O)N[C@@H](CCCNC(=N)N)C(=O)N1CCC[C@H]1C(=O)N1CCC[C@H]1C(=O)N[C@@H](Cc1c[nH]cn1)C(=O)N1CCC[C@H]1C(=O)N[C@@H](CCCNC(=N)N)C(=O)NCCC(C)C` [Compound 4] ({Orn(α-tetramethylguanidino)}-NNRPVYIPRPRPPHPR-NHIsopentyl), the MIC with E. coli BL21 (Table 1) is greater than 40 µM.

With `CC[C@H](C)[C@H](NC(=O)[C@H](Cc1ccc(O)cc1)NC(=O)[C@@H](NC(=O)[C@@H]1CCCN1C(=O)[C@H](CCCNC(=N)N)NC(=O)[C@H](CC(N)=O)NC(=O)[C@H](CC(N)=O)NC(=O)[C@H](CCCN)N=C(N(C)C)N(C)C)C(C)C)C(=O)N1CCC[C@H]1C(=O)N[C@@H](CCCNC(=N)N)C(=O)N1CCC[C@H]1C(=O)N[C@@H](CCCNC(=N)N)C(=O)N1CCC[C@H]1C(=O)N1CCC[C@H]1C(=O)N[C@@H](Cc1c[nH]cn1)C(=O)N1CCC[C@H]1C(=O)N[C@@H](CCCNC(=N)N)C(=O)N[C@@H](CO)CC(C)C` [Compound 6] ({Orn(α-tetramethylguanidino)}-NNRPVYIPRPRPPHPR[dLeu(ol)]), in the experiment on E. coli BL21 (Table 1), the Fold change is on record as 62–128.

Take `CC[C@H](C)[C@H](NC(=O)[C@H](Cc1ccc(O)cc1)NC(=O)[C@@H](NC(=O)[C@@H]1CCCN1C(=O)[C@H](CCCNC(=N)N)NC(=O)[C@H](CC(N)=O)NC(=O)[C@H](CC(N)=O)NC(=O)[C@H](CCCN)N=C(N(C)C)N(C)C)C(C)C)C(=O)N1CCC[C@H]1C(=O)N[C@@H](CCCNC(=N)N)C(=O)N1CCC[C@H]1C(=O)N[C@@H](CCCNC(=N)N)C(=O)N1CCC[C@H]1C(=O)N1CCC[C@H]1C(=O)N[C@@H](Cc1c[nH]c2ccccc12)C(=O)N1CCC[C@H]1C(=O)N[C@@H](CCCNC(=N)N)C(=O)N[C@@H](CC(C)C)C(=O)O` [Compound 14] ({Orn(α-tetramethylguanidino)}-NNRPVYIPRPRPPWPRL-OH): in the experiment on E. coli BL21 (Table 2), the Fold change is 8–16 and the minimum inhibitory concentration (MIC) was in the range of 1.2 to 2.5 µM.

As to gu-ONNRPVYIPRPRPPHPRL-OH [Compound 15], in the experiment on E. coli BL21 (Table 3), the Fold change worked out at 4 and the MIC came to 0.62 µM.

In the experiment with E. coli BL21 (Table 3), gu-ONNRPVYIPRPRPPHPRL-OH [Compound 18] registered a Fold change of 4 and an MIC of 0.62 µM.

As to gu-ONNRPVYIPRPRPPHPRL-OH [Compound 21], in the experiment with E. coli BL21 (Table 3), the Fold change is recorded as 2–4.

In the case of gu-ONNRPVYIPRPRPPHPRL-OH [Compound 22], in the experiment with E. coli BL21 (Table 3), the Fold change is listed as 2–4.

For the molecule gu-ONNRPVYIPRPRPPHPRL-OH [Compound 23], in the experiment with E. coli BL21 (Table 3), the Fold change was determined as 2 and the MIC was 0.16 to 0.3 µM.

gu-ONNRPVYIPRPRPPHPRL-OH [Compound 25] showed an MIC in the experiment with E. coli BL21 (Table 3) of 0.08 to 0.16 µM.

In the experiment with E. coli BL21 (Table 3), gu-ONNRPVYIPRPRPPHPRL-OH [Compound 26] yielded a Fold change of 1 and an MIC of 0.08 to 0.16 µM.

For the origin of these results see paper PMC10768847 (Journal of medicinal chemistry, 2023).
